From patent US9834571B2, “Compounds for inhibiting cell proliferation in EGFR-driven cancers” (ARIAD Pharmaceuticals, Inc., priority 2012, dated 2017) come the findings set out here.

Assay [1] addresses human EGFR (native sequence) (Homo sapiens, UniProt P00533). Nature of the assay: Kinase inhibitory activity against human EGFR (native sequence). The note with it: human EGFR native sequence; 10 μM ATP; read-out: IC50 for kinase inhibition, EGFR. Type of assay: biochemical. As to the method: (§1) Kinase inhibitory activity of the compounds was measured against human EGFR (native sequence) and against EGFR bearing the L858R mution and the L858R/T790M double mutation (EGFR, L858R, and L858R/T790M, respectively in Table 1). Additional assays can be conducted with EGFR deletion mutants such as delE746-A750 with or without the additional T790M mutation. Assay conditions included 10 pt curves with 3 μM top concentration (singlicates) and 10 μM ATP.

Assay [2] concerns BaF3 cells expressing wildtype EGFR. The assay can be described thus: Antiproliferative activity (MTT) against control BaF3 cells expressing wildtype EGFR. The assay is classed as cell-based. The note with it: Mus musculus, BAF3 PARENTAL cells (control). As to the method: (§2) We also assessed the antiproliferative activity of compounds of Formula (I) against BaF3 cells expressing the target EGFR mutations or control (i.e., cell lines expressing wildtype EGFR). Assays were conducted using MTT.

In assay [3] the target is T1, BaF3 cells expressing the target EGFR mutations (Homo sapiens, UniProt P00533, T790M, cells depend on it, form not given).
T1 construct: IC50, BAF3 EGFR DEL T790M PURO POOL; other: BAF3 EGFR DEL T790M PURO POOL cells, MTT; other: BAF3 EGFR DEL T790M PURO POOL cells; MTT
The assay can be described thus: Antiproliferative activity (MTT) against BaF3 cells expressing the target EGFR mutations. Type of assay: cell-based. The note with it: BAF3 EGFR DEL T790M PURO POOL cells, read-out: IC50, BAF3 EGFR DEL T790M PURO POOL. As for the experimental part: as §2

For assay [4], the target named is T2, BaF3 cells expressing the target EGFR mutations (Homo sapiens, UniProt P00533, T790M/L858R, cells depend on it).
T2 construct: IC50, BAF3 EGFR L858R-T790M PURO POOL; other: BAF3 EGFR L858R-T790M PURO POOL cells, MTT; IC50, BAF3 EGFR L858R-T790M PURO POOL; other: BAF3 EGFR L858R-T790M PURO POOL cells; MTT
The assay is described as above. The assay is classed as cell-based. Particulars: BAF3 EGFR L858R-T790M PURO POOL cells, read-out: IC50, BAF3 EGFR L858R-T790M PURO POOL. As to the method: as §2

Another assay has as its target EGFR L858R (Homo sapiens, UniProt P00533, L858R). The assay can be described thus: Kinase inhibitory activity against EGFR bearing the L858R mutation. Type of assay: biochemical. Particulars: EGFR L858R; 10 μM ATP; read-out: IC50 for kinase inhibition, EGFR L858R. As for the experimental part:
as §1

For a further assay, the target named is EGFR L858R/T790M (Homo sapiens, UniProt P00533, L858R/T790M). Nature of the assay: Kinase inhibitory activity against EGFR bearing the L858R/T790M double mutation. Type of assay: biochemical. Particulars: EGFR L858R/T790M double mutation; 10 μM ATP; read-out: IC50 for kinase inhibition, EGFR L858R T790M. As for the experimental part: as §1

As usually defined, the pIC50 is the negative decadic logarithm of the IC50, by convention in mol/L.

pIC50: −log10 of the molar value.

T1 sequence (P00533 with tags, fused parts or gaps DEL746-750/T790M, form open): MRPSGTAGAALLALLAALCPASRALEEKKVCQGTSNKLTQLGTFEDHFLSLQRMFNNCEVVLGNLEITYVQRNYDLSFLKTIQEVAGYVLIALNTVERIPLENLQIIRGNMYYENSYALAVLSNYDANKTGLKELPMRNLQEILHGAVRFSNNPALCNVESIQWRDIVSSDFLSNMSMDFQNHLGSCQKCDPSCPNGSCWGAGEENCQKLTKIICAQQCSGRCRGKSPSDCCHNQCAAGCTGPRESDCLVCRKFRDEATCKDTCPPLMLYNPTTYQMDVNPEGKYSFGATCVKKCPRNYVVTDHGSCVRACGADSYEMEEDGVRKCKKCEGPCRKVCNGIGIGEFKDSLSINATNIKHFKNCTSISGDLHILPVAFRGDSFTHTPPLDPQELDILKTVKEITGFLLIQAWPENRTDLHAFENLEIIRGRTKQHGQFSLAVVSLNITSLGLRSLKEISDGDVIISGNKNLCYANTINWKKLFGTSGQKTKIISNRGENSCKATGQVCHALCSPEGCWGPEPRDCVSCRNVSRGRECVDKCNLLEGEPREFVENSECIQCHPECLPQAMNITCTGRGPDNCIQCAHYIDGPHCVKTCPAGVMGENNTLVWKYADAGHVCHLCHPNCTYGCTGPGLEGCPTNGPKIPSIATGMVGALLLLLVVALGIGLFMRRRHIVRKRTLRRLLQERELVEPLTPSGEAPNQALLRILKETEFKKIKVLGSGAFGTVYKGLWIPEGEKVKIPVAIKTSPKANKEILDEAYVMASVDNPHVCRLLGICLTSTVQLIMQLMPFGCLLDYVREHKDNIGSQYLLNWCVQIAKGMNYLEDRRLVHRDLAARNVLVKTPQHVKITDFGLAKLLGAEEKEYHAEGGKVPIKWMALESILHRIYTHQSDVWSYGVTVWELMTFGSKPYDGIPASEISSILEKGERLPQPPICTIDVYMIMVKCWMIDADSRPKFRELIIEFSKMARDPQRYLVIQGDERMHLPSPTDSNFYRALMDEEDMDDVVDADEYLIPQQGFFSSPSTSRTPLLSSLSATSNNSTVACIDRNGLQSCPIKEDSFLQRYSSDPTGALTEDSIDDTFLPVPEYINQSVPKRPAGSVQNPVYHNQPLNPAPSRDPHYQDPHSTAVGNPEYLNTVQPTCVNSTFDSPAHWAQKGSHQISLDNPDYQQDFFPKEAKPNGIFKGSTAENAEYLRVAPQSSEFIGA
Chain of EGFR L858R/T790M (P00533 25-1210 T790M/L858R): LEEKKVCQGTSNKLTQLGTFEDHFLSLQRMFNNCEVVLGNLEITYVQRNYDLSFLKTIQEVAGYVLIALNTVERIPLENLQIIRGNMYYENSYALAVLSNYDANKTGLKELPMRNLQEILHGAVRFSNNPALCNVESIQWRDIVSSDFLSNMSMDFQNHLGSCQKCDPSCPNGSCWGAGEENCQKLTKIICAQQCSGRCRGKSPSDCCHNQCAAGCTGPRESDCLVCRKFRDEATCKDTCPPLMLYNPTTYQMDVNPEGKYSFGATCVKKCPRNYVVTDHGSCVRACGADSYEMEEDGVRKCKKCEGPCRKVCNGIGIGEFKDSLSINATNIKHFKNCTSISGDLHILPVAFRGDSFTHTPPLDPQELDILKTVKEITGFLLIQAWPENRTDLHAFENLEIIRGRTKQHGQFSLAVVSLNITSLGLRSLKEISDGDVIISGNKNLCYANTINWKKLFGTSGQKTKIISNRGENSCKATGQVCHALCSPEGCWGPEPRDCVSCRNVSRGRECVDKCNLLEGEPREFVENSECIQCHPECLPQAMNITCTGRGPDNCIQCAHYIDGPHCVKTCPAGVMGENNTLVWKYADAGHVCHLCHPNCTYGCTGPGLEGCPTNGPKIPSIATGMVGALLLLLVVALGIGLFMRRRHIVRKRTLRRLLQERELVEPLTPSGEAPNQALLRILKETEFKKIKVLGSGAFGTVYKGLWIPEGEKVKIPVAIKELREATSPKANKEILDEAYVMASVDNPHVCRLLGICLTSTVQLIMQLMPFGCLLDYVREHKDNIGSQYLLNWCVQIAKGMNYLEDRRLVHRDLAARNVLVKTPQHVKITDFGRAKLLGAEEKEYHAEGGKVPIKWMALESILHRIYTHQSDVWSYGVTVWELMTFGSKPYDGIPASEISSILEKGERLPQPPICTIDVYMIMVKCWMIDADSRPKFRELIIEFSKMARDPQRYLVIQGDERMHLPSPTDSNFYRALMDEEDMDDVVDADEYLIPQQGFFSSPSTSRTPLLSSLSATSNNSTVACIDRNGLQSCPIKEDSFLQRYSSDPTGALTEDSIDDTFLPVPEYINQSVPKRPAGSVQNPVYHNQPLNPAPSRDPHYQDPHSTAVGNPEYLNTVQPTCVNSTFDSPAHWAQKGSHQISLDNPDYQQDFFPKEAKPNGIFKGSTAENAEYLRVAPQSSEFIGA
Chain of human EGFR (native sequence) (P00533 25-1210): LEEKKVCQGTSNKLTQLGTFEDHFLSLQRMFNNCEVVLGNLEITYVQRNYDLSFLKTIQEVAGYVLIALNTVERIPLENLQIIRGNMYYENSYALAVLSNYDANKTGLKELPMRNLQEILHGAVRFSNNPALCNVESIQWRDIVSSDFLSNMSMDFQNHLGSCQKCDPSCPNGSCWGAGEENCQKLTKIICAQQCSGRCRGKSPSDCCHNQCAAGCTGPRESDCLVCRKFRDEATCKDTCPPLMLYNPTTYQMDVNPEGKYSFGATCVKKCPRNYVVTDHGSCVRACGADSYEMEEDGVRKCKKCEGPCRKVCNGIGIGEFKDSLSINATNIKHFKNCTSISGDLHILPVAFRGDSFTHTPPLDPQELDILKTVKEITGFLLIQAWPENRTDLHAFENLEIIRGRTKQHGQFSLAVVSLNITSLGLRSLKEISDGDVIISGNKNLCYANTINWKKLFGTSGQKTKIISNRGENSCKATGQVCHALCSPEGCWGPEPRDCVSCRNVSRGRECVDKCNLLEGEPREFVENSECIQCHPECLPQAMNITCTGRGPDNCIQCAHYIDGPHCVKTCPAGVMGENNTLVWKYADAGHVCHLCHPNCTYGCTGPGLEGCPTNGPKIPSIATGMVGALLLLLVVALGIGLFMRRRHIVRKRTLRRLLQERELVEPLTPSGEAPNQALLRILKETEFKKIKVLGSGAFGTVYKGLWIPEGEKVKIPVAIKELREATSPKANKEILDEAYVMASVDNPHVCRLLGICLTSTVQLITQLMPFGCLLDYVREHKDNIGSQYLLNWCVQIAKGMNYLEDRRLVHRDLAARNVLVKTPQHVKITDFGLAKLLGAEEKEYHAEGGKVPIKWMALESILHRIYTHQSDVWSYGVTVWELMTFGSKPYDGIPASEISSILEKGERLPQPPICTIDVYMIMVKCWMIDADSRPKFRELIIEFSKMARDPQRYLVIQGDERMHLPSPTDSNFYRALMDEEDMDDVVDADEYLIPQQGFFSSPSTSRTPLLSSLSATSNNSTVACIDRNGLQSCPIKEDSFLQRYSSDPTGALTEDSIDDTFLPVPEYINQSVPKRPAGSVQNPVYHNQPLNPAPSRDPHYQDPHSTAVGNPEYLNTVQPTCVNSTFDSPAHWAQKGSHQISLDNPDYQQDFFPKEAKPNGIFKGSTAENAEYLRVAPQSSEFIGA
Chain of EGFR L858R (P00533 25-1210 L858R): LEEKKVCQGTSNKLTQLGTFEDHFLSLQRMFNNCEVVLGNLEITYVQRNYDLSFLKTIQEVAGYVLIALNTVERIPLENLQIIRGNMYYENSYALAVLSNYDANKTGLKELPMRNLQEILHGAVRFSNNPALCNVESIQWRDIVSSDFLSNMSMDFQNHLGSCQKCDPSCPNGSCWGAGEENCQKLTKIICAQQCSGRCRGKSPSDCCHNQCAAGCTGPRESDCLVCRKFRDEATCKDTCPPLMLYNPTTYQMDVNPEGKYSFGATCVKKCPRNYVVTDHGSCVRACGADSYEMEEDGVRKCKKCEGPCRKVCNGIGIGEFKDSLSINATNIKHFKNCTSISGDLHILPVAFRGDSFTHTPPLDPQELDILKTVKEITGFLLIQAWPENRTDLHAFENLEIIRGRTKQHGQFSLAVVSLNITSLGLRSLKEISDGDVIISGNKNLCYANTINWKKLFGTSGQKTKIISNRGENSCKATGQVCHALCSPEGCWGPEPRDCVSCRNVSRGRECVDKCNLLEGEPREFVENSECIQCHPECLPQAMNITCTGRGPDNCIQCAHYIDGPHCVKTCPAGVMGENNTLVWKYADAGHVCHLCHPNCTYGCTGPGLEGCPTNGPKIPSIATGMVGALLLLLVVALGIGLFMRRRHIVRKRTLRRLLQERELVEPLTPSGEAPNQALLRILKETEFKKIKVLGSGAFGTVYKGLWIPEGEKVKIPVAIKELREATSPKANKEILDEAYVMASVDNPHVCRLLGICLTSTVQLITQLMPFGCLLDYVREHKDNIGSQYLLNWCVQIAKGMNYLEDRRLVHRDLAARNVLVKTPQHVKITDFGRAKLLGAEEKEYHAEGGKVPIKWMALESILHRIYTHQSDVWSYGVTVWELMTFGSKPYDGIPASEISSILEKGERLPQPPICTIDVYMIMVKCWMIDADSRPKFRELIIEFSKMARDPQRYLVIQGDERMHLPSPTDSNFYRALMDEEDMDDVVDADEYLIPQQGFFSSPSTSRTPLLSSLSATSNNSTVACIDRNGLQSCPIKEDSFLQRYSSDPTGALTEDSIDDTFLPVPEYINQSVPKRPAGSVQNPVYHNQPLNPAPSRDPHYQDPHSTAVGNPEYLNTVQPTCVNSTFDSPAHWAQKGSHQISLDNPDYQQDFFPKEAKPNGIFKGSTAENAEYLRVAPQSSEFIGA

On to `C=CC(=O)Nc1cc(Nc2ncc(Cl)c(Nc3ccccc3P(C)(C)=O)n2)c(OC)cc1N1CCCN(C)CC1` [Example 25, N-(5-((5-chloro-4-((2-(dimethylphosphoryl)phenyl)amino)pyrimidin-2-yl)amino)-4-methoxy-2-(4-methyl-1,4-diazepan-1-yl)phenyl)acrylamide], for which the negative-log IC50 (pIC50) in assay [1] was over 7.30; in assay [2] it was at most 6.60; on EGFR L858R, over 7.30; on EGFR L858R/T790M it was over 7.30. For the same molecule, the GI50 in assay [3] and in assay [4] was under 0.05 µM each time.

`C=CC(=O)Nc1cc(Nc2ncc(Cl)c(Nc3ccccc3P(C)(C)=O)n2)c(OC)cc1N1CCN(C2CCN(C)CC2)CC1` [Example 27, N-(5-((5-chloro-4-((2-(dimethylphosphoryl)phenyl)amino)pyrimidin-2-yl)amino)-4-methoxy-2-(4-(1-methylpiperidin-4-yl)piperazin-1-yl)phenyl)acrylamide]: the negative-log IC50 (pIC50) in assay [1] is over 7.30; in assay [2], at most 6.60; at EGFR L858R it was over 7.30; at EGFR L858R/T790M, over 7.30. The GI50 in assay [3] is 0.05 to 0.1 µM; in assay [4], 0.101 to 0.25 µM.

As to `C=CC(=O)Nc1cc(Nc2ncc(Cl)c(Nc3ccccc3P(C)(C)=O)n2)c(OC)cc1N1CCC(N2CCOCC2)C1` (stereo not drawn) [Example 28, N-(5-((5-chloro-4-((2-(dimethylphosphoryl)phenyl)amino)pyrimidin-2-yl)amino)-4-methoxy-2-(3-morpholinopyrrolidin-1-yl)phenyl)acrylamide], the pIC50 was over 7.30 in assay [1], at most 6.60 in assay [2], over 7.30 at EGFR L858R and over 7.30 on EGFR L858R/T790M. In addition, the GI50 in assay [3] and in assay [4] was under 0.05 µM throughout.

With `C=CC(=O)Nc1cc(Nc2ncc(Cl)c(Nc3ccccc3P(C)(C)=O)n2)c(OC)cc1N1CCCC(N(C)C)C1` (stereo not drawn) [Example 30, N-(5-((5-chloro-4-((2-(dimethylphosphoryl)phenyl)amino)pyrimidin-2-yl)amino)-2-(3-(dimethylamino)piperidin-1-yl)-4-methoxyphenyl)acrylamide], the pIC50 is over 7.30 in assay [1], at most 6.60 in assay [2], over 7.30 at EGFR L858R and over 7.30 at EGFR L858R/T790M. Further, the GI50 in assay [3] and in assay [4] was under 0.05 µM in each case.

For `C=CC(=O)Nc1cc(Nc2ncc(Cl)c(Nc3ccccc3P(C)(C)=O)n2)c(OC)cc1N1CC(N2CCCC2)C1` [Example 31, N-(5-((5-chloro-4-((2-(dimethylphosphoryl)phenyl)amino)pyrimidin-2-yl)amino)-4-methoxy-2-(3-(pyrrolidin-1-yl)azetidin-1-yl)phenyl)acrylamide], the negative logarithm of the IC50 (pIC50) is over 7.30 in assay [1], at most 6.60 in assay [2], over 7.30 on EGFR L858R and over 7.30 at EGFR L858R/T790M. In addition, the GI50 in assay [3] and in assay [4] was under 0.05 µM in each case.

For `C=CC(=O)Nc1cc(Nc2ncc(Cl)c(Nc3ccccc3P(C)(C)=O)n2)c(OC)cc1N1CCC(O)C1` (stereo not drawn) [Example 32, N-(5-((5-chloro-4-((2-(dimethylphosphoryl)phenyl)amino)pyrimidin-2-yl)amino)-2-(3-hydroxypyrrolidin-1-yl)-4-methoxyphenyl)acrylamide], the pIC50 was over 7.30 in assay [1], at most 6.60 in assay [2], over 7.30 at EGFR L858R and over 7.30 at EGFR L858R/T790M. The GI50 fell in the range of 0.05 to 0.1 µM in assay [3] and 0.101 to 0.25 µM in assay [4].

`C=CC(=O)Nc1cc(Nc2ncc(Cl)c(Nc3ccccc3P(C)(C)=O)n2)c(OC)cc1N1CCC(N2CCCCC2)C1` (stereo not drawn) [Example 33, N-(5-((5-chloro-4-((2-(dimethylphosphoryl)phenyl)amino)pyrimidin-2-yl)amino)-4-methoxy-2-(3-(piperidin-1-yl)pyrrolidin-1-yl)phenyl)acrylamide]: the negative-log IC50 (pIC50) is over 7.30 in assay [1], at most 6.60 in assay [2], over 7.30 at EGFR L858R and over 7.30 on EGFR L858R/T790M. In addition, the GI50 in assay [3] and in assay [4] was under 0.05 µM throughout.

With `C=CC(=O)Nc1cc(Nc2ncc(Cl)c(Nc3ccccc3P(C)(C)=O)n2)c(OC)cc1N1CCC(N(CC)CC)C1` (stereo not drawn) [Example 34, N-(5-((5-chloro-4-((2-(dimethylphosphoryl)phenyl)amino)pyrimidin-2-yl)amino)-2-(3-(diethylamino)pyrrolidin-1-yl)-4-methoxyphenyl)acrylamide], the pIC50 was over 7.30 in assay [1], at most 6.60 in assay [2], over 7.30 on EGFR L858R and over 7.30 at EGFR L858R/T790M. Further, the GI50 in assay [3] and in assay [4] was under 0.05 µM throughout.

Take `C=CC(=O)Nc1cc(Nc2ncc(Cl)c(Nc3ccccc3P(C)(C)=O)n2)c(OC)cc1N1CCC(N2CCC(O)C2)C1` (stereo not drawn) [Example 35, N-(5-((5-chloro-4-((2-(dimethylphosphoryl)phenyl)amino)pyrimidin-2-yl)amino)-2-(3-hydroxy-[1,3′-bipyrrolidin]-1′-yl)-4-methoxyphenyl)acrylamide]: the pIC50 is over 7.30 in assay [1], at most 6.60 in assay [2], over 7.30 at EGFR L858R and over 7.30 at EGFR L858R/T790M. Further, the GI50 in assay [3] was 0.101 to 0.25 µM; in assay [4] it was at least 0.25 µM.

Regarding `C=CC(=O)Nc1cc(Nc2ncc(Cl)c(Nc3ccccc3P(C)(C)=O)n2)c(OC)cc1N1CCC(N2CCCC2)C1` (stereo not drawn) [Example 36, N-(2-([1,3′-bipyrrolidin]-1′-yl)-5-((5-chloro-4-((2-(dimethylphosphoryl)phenyl)amino)pyrimidin-2-yl)amino)-4-methoxyphenyl)acrylamide], the pIC50 in assay [1] was over 7.30; in assay [2], at most 6.60; at EGFR L858R it was over 7.30; on EGFR L858R/T790M, over 7.30. The GI50 in assay [3] and in assay [4] was under 0.05 µM throughout.

As for `C=CC(=O)Nc1cc(Nc2ncc(Cl)c(Nc3ccccc3P(C)(C)=O)n2)c(OC)cc1N1CCC(N2CCN(C)CC2)C1` (stereo not drawn) [Example 37, N-(5-((5-chloro-4-((2-(dimethylphosphoryl)phenyl)amino)pyrimidin-2-yl)amino)-4-methoxy-2-(3-(4-methylpiperazin-1-yl)pyrrolidin-1-yl)phenyl)acrylamide], the pIC50 in assay [1] was over 7.30; in assay [2], at most 6.60; at EGFR L858R, over 7.30; on EGFR L858R/T790M it was over 7.30. The GI50 in assay [3] fell in the range of 0.05 to 0.1 µM; in assay [4], 0.101 to 0.25 µM.

`C=CC(=O)Nc1cc(Nc2ncc(Cl)c(Nc3ccccc3P(C)(C)=O)n2)c(OC)cc1N1CCC(N(C)CCN(CC)CC)C1` (stereo not drawn) [Example 38, N-(5-((5-chloro-4-((2-(dimethylphosphoryl)phenyl)amino)pyrimidin-2-yl)amino)-2-(3-((2-(diethylamino)ethyl)(methyl)amino)pyrrolidin-1-yl)-4-methoxyphenyl)acrylamide]: the negative-log IC50 (pIC50) is over 7.30 in assay [1], at most 6.60 in assay [2], over 7.30 at EGFR L858R and over 7.30 at EGFR L858R/T790M. Further, the GI50 was under 0.05 µM in assay [3] and 0.101 to 0.25 µM in assay [4].

On to `C=CC(=O)Nc1cc(Nc2ncc(Cl)c(Nc3ccccc3P(C)(C)=O)n2)c(OC)cc1N1CCC(N2CCC(O)CC2)C1` (stereo not drawn) [Example 39, N-(5-((5-chloro-4-((2-(dimethylphosphoryl)phenyl)amino)pyrimidin-2-yl)amino)-2-(3-(4-hydroxypiperidin-1-yl)pyrrolidin-1-yl)-4-methoxyphenyl)acrylamide], for which the negative logarithm of the IC50 (pIC50) was over 7.30 in assay [1], at most 6.60 in assay [2], over 7.30 on EGFR L858R and over 7.30 on EGFR L858R/T790M. The GI50 was 0.101 to 0.25 µM in assay [3] and at least 0.25 µM in assay [4].

As for `C=CC(=O)Nc1cc(Nc2ncc(Cl)c(Nc3ccccc3P(C)(C)=O)n2)c(OC)cc1N1CCC(N2CCN(CCO)CC2)C1` (stereo not drawn) [Example 40, N-(5-((5-chloro-4-((2-(dimethylphosphoryl)phenyl)amino)pyrimidin-2-yl)amino)-2-(3-(4-(2-hydroxyethyl)piperazin-1-yl)pyrrolidin-1-yl)-4-methoxyphenyl)acrylamide], the pIC50 was over 7.30 in assay [1], at most 6.60 in assay [2], over 7.30 at EGFR L858R and over 7.30 at EGFR L858R/T790M. Also, the GI50 in assay [3] and in assay [4] was at least 0.25 µM each time.
